Values after ≈ are worked out from the molar mass of the structure shown. Read-outs that look alike come from different tables or passages of the source.
Experiments:
E. coli GC 2231 = experiment: MIC, broth microdilution; conditions: Escherichia coli
E. coli GC 2232 = experiment: MIC, broth microdilution; conditions: Escherichia coli
Method: Antimicrobial susceptibility testing. The in vitro activities of the antibiotics are determined by the broth microdilution method as recommended by the National Committee for Clinical Laboratory Standards (NCCLS) (1). Mueller-Hinton II broth (MHBII)(BBL Cockeysville, Md.) is the medium employed in the testing procedures. Microtiter plates containing serial dilutions of each antimicrobial agent are inoculated with each organism to yield the appropriate density (10^5 CFU/ml) in a 100 μl final volume. The plates are incubated for 18-22 hours at 35° C. in ambient air.
Representative compounds were first incubated in mouse serum for an hour prior to the in vitro testing against a panel of selected gram-positive and gram-negative bacteria strains. All compounds were also pre-incubated in water for an hour prior to testing as control. Representative compounds of Formula I were incubated in human serum prior to MIC determination.

E. coli GC 2272 = experiment: MIC, broth microdilution; conditions: Escherichia coli
E. coli GC 4560 = experiment: MIC, broth microdilution; conditions: Escherichia coli
E. coli GC 6465 = experiment: MIC, broth microdilution; conditions: Escherichia coli
E. coli GC 3226 = experiment: MIC, broth microdilution; conditions: Escherichia coli
E. coli GC 2203 = experiment: MIC, broth microdilution; conditions: Escherichia coli
S. typhimurium GC 2172 = experiment: MIC, broth microdilution; conditions: Salmonella enterica, TYPHIMURIUM
S. aureus GC 6466 = experiment: MIC, broth microdilution; conditions: Staphylococcus aureus
S. aureus GC 6467 = experiment: MIC, broth microdilution; conditions: Staphylococcus aureus
S. aureus GC 4536 = experiment: MIC, broth microdilution; conditions: Staphylococcus aureus
S. aureus GC 6469 = experiment: MIC, broth microdilution; conditions: Staphylococcus aureus
E. faecalis GC 4555 = experiment: MIC, broth microdilution; conditions: Enterococcus faecalis
E. faecalis GC 2265 = experiment: MIC, broth microdilution; conditions: Enterococcus faecalis
E. faecalis GC 2267 = experiment: MIC, broth microdilution; conditions: Enterococcus faecalis
E. faecium GC 2243 = experiment: MIC, broth microdilution; conditions: Enterococcus faecium
S. pneumoniae* GC 4465 = experiment: MIC, broth microdilution; conditions: Streptococcus pneumoniae
S. agalactiae GC 4564 = experiment: MIC, broth microdilution; conditions: Streptococcus agalactiae
E. coli = experiment: Range of MIC for E. coli strains; conditions: Escherichia coli
Staph. = experiment: Range of MIC for Staph. strains, including MRSA; conditions: Staphylococcus aureus
[1] = read-out: MINIMAL INHIBITORY CONCENTRATION MIC, Human Serum
[2] = read-out: MINIMAL INHIBITORY CONCENTRATION MIC, Mouse Serum
[3] = read-out: MINIMAL INHIBITORY CONCENTRATION MIC, Water

Compound CN(C)c1cc(NC(=O)CN(C(=O)OCOC(=O)c2ccc(F)cc2)C(C)(C)C)c(O)c2c1C[C@H]1C[C@H]3[C@H](N(C)C)C(O)=C(C(N)=O)C(=O)[C@@]3(O)C(O)=C1C2=O [Example 52, ({[(2-{[(5aR,6aS,7S,10aS)-9-(aminocarbonyl)-4,7-bis(dimethylamino)-1,8,10a,11-tetrahydroxy-10,12-dioxo-5,5a,6,6a,7,10,10a,12-octahydrotetracen-2-yl]amino}-2-oxoethyl)(tert-butyl)amino]carbonyl}oxy)methyl 4-fluorobenzoate] has an MIC (E. coli GC 2231; GC2231, read-out: MINIMAL INHIBITORY CONCENTRATION MIC, Human Serum) of 8 µg/mL (≈ 10.2 µM), an MIC (E. coli GC 2231; GC2231, read-out: MINIMAL INHIBITORY CONCENTRATION MIC, Mouse Serum) of 1 µg/mL (≈ 1.28 µM) and an MIC (E. coli GC 2231; GC2231, read-out: MINIMAL INHIBITORY CONCENTRATION MIC, Water) of 16 µg/mL (≈ 20.5 µM). It also gave an MIC (E. coli GC 2232; GC2232, read-out: MINIMAL INHIBITORY CONCENTRATION MIC, Human Serum) of 4 µg/mL (≈ 5.12 µM), an MIC (E. coli GC 2232; GC2232, read-out: MINIMAL INHIBITORY CONCENTRATION MIC, Mouse Serum) of 0.5 µg/mL (≈ 0.64 µM) and an MIC (E. coli GC 2232; GC2232, read-out: MINIMAL INHIBITORY CONCENTRATION MIC, Water) of 8 µg/mL (≈ 10.2 µM). It also gave an MIC (E. coli GC 2272; GC2272, read-out: MINIMAL INHIBITORY CONCENTRATION MIC, Human Serum) of 4 µg/mL (≈ 5.12 µM), an MIC (E. coli GC 2272; GC2272, read-out: MINIMAL INHIBITORY CONCENTRATION MIC, Mouse Serum) of 0.5 µg/mL (≈ 0.64 µM) and an MIC (E. coli GC 2272; GC2272, read-out: MINIMAL INHIBITORY CONCENTRATION MIC, Water) of 4 µg/mL (≈ 5.12 µM). It also gave an MIC (E. coli GC 4560; GC4560, read-out: MINIMAL INHIBITORY CONCENTRATION MIC, Human Serum) of 2 µg/mL (≈ 2.56 µM), an MIC (E. coli GC 4560; GC4560, read-out: MINIMAL INHIBITORY CONCENTRATION MIC, Mouse Serum) of 0.25 µg/mL (≈ 0.32 µM) and an MIC (E. coli GC 4560; GC4560, read-out: MINIMAL INHIBITORY CONCENTRATION MIC, Water) of 2 µg/mL (≈ 2.56 µM). For the same compound, the MIC (E. coli GC 6465; GC6465, read-out: MINIMAL INHIBITORY CONCENTRATION MIC, Human Serum) was 16 µg/mL (≈ 20.5 µM), the MIC (E. coli GC 6465; GC6465, read-out: MINIMAL INHIBITORY CONCENTRATION MIC, Mouse Serum) was 2 µg/mL (≈ 2.56 µM) and the MIC (E. coli GC 6465; GC6465, read-out: MINIMAL INHIBITORY CONCENTRATION MIC, Water) was 64 µg/mL (≈ 81.9 µM). For the same compound, the MIC (E. coli GC 3226; GC3226, read-out: MINIMAL INHIBITORY CONCENTRATION MIC, Human Serum) was 16 µg/mL (≈ 20.5 µM), the MIC (E. coli GC 3226; GC3226, read-out: MINIMAL INHIBITORY CONCENTRATION MIC, Mouse Serum) was 1 µg/mL (≈ 1.28 µM) and the MIC (E. coli GC 3226; GC3226, read-out: MINIMAL INHIBITORY CONCENTRATION MIC, Water) was 16 µg/mL (≈ 20.5 µM). The MIC (E. coli GC 2203; GC2203, read-out: MINIMAL INHIBITORY CONCENTRATION MIC, Human Serum) was 8 µg/mL (≈ 10.2 µM), the MIC (E. coli GC 2203; GC2203, read-out: MINIMAL INHIBITORY CONCENTRATION MIC, Mouse Serum) was 0.5 µg/mL (≈ 0.64 µM) and the MIC (E. coli GC 2203; GC2203, read-out: MINIMAL INHIBITORY CONCENTRATION MIC, Water) was 8 µg/mL (≈ 10.2 µM). For the same compound, the MIC (S. typhimurium GC 2172; [1]) was 64 µg/mL (≈ 81.9 µM), the MIC (S. typhimurium GC 2172; [2]) was 4 µg/mL (≈ 5.12 µM) and the MIC (S. typhimurium GC 2172; [3]) was 64 µg/mL (≈ 81.9 µM). The MIC (S. aureus GC 6466; GC6466, read-out: MINIMAL INHIBITORY CONCENTRATION MIC, Human Serum) was 1 µg/mL (≈ 1.28 µM), the MIC (S. aureus GC 6466; GC6466, read-out: MINIMAL INHIBITORY CONCENTRATION MIC, Mouse Serum) was 0.5 µg/mL (≈ 0.64 µM) and the MIC (S. aureus GC 6466; GC6466, read-out: MINIMAL INHIBITORY CONCENTRATION MIC, Water) was 2 µg/mL (≈ 2.56 µM). For the same compound, the MIC (S. aureus GC 6467; GC6467, read-out: MINIMAL INHIBITORY CONCENTRATION MIC, Human Serum) was 4 µg/mL (≈ 5.12 µM), the MIC (S. aureus GC 6467; GC6467, read-out: MINIMAL INHIBITORY CONCENTRATION MIC, Mouse Serum) was 0.5 µg/mL (≈ 0.64 µM) and the MIC (S. aureus GC 6467; GC6467, read-out: MINIMAL INHIBITORY CONCENTRATION MIC, Water) was 4 µg/mL (≈ 5.12 µM). For the same compound, the MIC (S. aureus GC 4536; GC4536, read-out: MINIMAL INHIBITORY CONCENTRATION MIC, Human Serum) was 0.5 µg/mL (≈ 0.64 µM), the MIC (S. aureus GC 4536; GC4536, read-out: MINIMAL INHIBITORY CONCENTRATION MIC, Mouse Serum) was 0.5 µg/mL (≈ 0.64 µM) and the MIC (S. aureus GC 4536; GC4536, read-out: MINIMAL INHIBITORY CONCENTRATION MIC, Water) was 2 µg/mL (≈ 2.56 µM). The MIC (S. aureus GC 6469; GC6469, read-out: MINIMAL INHIBITORY CONCENTRATION MIC, Human Serum) was 2 µg/mL (≈ 2.56 µM), the MIC (S. aureus GC 6469; GC6469, read-out: MINIMAL INHIBITORY CONCENTRATION MIC, Mouse Serum) was 0.5 µg/mL (≈ 0.64 µM) and the MIC (S. aureus GC 6469; GC6469, read-out: MINIMAL INHIBITORY CONCENTRATION MIC, Water) was 4 µg/mL (≈ 5.12 µM). The MIC (E. faecalis GC 4555; GC4555, read-out: MINIMAL INHIBITORY CONCENTRATION MIC, Human Serum) was 2 µg/mL (≈ 2.56 µM), the MIC (E. faecalis GC 4555; GC4555, read-out: MINIMAL INHIBITORY CONCENTRATION MIC, Mouse Serum) was 0.5 µg/mL (≈ 0.64 µM) and the MIC (E. faecalis GC 4555; GC4555, read-out: MINIMAL INHIBITORY CONCENTRATION MIC, Water) was 4 µg/mL (≈ 5.12 µM). It also gave an MIC (E. faecalis GC 2265; GC2265, read-out: MINIMAL INHIBITORY CONCENTRATION MIC, Human Serum) of 4 µg/mL (≈ 5.12 µM), an MIC (E. faecalis GC 2265; GC2265, read-out: MINIMAL INHIBITORY CONCENTRATION MIC, Mouse Serum) of 1 µg/mL (≈ 1.28 µM) and an MIC (E. faecalis GC 2265; GC2265, read-out: MINIMAL INHIBITORY CONCENTRATION MIC, Water) of 4 µg/mL (≈ 5.12 µM). For the same compound, the MIC (E. faecalis GC 2267; GC2267, read-out: MINIMAL INHIBITORY CONCENTRATION MIC, Human Serum) was 4 µg/mL (≈ 5.12 µM), the MIC (E. faecalis GC 2267; GC2267, read-out: MINIMAL INHIBITORY CONCENTRATION MIC, Mouse Serum) was 0.5 µg/mL (≈ 0.64 µM) and the MIC (E. faecalis GC 2267; GC2267, read-out: MINIMAL INHIBITORY CONCENTRATION MIC, Water) was 4 µg/mL (≈ 5.12 µM). The MIC (E. faecium GC 2243; GC2243, read-out: MINIMAL INHIBITORY CONCENTRATION MIC, Human Serum) was 1 µg/mL (≈ 1.28 µM), the MIC (E. faecium GC 2243; GC2243, read-out: MINIMAL INHIBITORY CONCENTRATION MIC, Mouse Serum) was 0.25 µg/mL (≈ 0.32 µM) and the MIC (E. faecium GC 2243; GC2243, read-out: MINIMAL INHIBITORY CONCENTRATION MIC, Water) was 1 µg/mL (≈ 1.28 µM). The MIC (S. pneumoniae* GC 4465; [1]) was 0.25 µg/mL (≈ 0.32 µM), the MIC (S. pneumoniae* GC 4465; [2]) was less than 0.06 µg/mL and the MIC (S. pneumoniae* GC 4465; [3]) was 0.12 µg/mL (≈ 0.153 µM). It also gave an MIC (S. agalactiae GC 4564; GC4564, read-out: MINIMAL INHIBITORY CONCENTRATION MIC, Human Serum) of 0.5 µg/mL (≈ 0.64 µM), an MIC (S. agalactiae GC 4564; GC4564, read-out: MINIMAL INHIBITORY CONCENTRATION MIC, Mouse Serum) of 0.12 µg/mL (≈ 0.153 µM) and an MIC (S. agalactiae GC 4564; GC4564, read-out: MINIMAL INHIBITORY CONCENTRATION MIC, Water) of 0.5 µg/mL (≈ 0.64 µM). The MIC (E. coli; 20 h, read-out: Range of MIC, E. coli (Mouse Serum)) was 0.5 to 1 µg/mL (≈ 0.64 to 1.28 µM), the MIC (E. coli; read-out: Minimum inhibitory concentration (MIC), E. coli (Human Serum)) was 4 to 16 µg/mL (≈ 5.12 to 20.5 µM) and the MIC (E. coli; read-out: Minimum inhibitory concentration (MIC), E. coli (water)) was 4 to 16 µg/mL (≈ 5.12 to 20.5 µM). For the same compound, the MIC (E. coli; read-out: Range of MIC, E. coli (Water)) was 4 to 16 µg/mL (≈ 5.12 to 20.5 µM), the MIC (Staph.; MRSA, read-out: Range of MIC, Staph (Mouse Serum)) was 0.5 to 1 µg/mL (≈ 0.64 to 1.28 µM) and the MIC (Staph.; MRSA, read-out: Range of MIC, Staph (Water)) was 2 to 4 µg/mL (≈ 2.56 to 5.12 µM). The MIC (Staph.; read-out: Minimum inhibitory concentration (MIC), Staph (Human Serum)) was 0.5 to 4 µg/mL (≈ 0.64 to 5.12 µM) and the MIC (Staph.; read-out: Minimum inhibitory concentration (MIC), Staph (Water)) was 2 to 4 µg/mL (≈ 2.56 to 5.12 µM).
